PubChem BioAssay (NCI)
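In this assay, cells in 96-well plates receive the compound at five concentrations for 48 hours. Endpoints are linearly interpolated between the surrounding concentrations. GI50 is the concentration that inhibits growth by half. TGI: total growth inhibition.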

Experiments:
Assay in all cases: DTP human tumour cell line panel, 48 h
[1] = tested on: 786-0 renal
[2] = tested on: A498 renal
[3] = tested on: A549 NSCLC
[4] = tested on: ACHN renal
[5] = tested on: BT-549 breast
[6] = tested on: CAKI-1 renal
[7] = tested on: CCRF-CEM leukemia
[8] = tested on: COLO 205 colon
[9] = tested on: DU-145 prostate
[10] = tested on: EKVX NSCLC
[11] = tested on: HCC-2998 colon
[12] = tested on: HCT-116 colon
[13] = tested on: HCT-15 colon
[14] = tested on: HL-60(TB) leukemia
[15] = tested on: HOP-62 NSCLC
[16] = tested on: HOP-92 NSCLC
[17] = tested on: HS 578T breast
[18] = tested on: HT29 colon
[19] = tested on: IGROV1 ovarian
[20] = tested on: KM12 colon
[21] = tested on: LOX IMVI melanoma
[22] = tested on: M14 melanoma
[23] = tested on: MALME-3M melanoma
[24] = tested on: MCF7 breast
[25] = tested on: MDA-MB-231 breast
[26] = tested on: MDA-MB-435
[27] = tested on: MOLT-4 leukemia
[28] = tested on: NCI-H226 lung
[29] = tested on: NCI-H23 lung

What does the source list for `O=C(Nc1ccc(Cl)cc1)c1ccc([N+](=O)[O-])o1`?
GI50 [1]: 1.91 µM; TGI [1]: 4.05 µM; GI50 [2]: 3.46 µM; TGI [2]: 14.8 µM; GI50 [3]: 2.64 µM; TGI [3]: 9.21 µM; GI50 [4]: 1.95 µM; TGI [4]: 4.07 µM; GI50 [5]: 1.9 µM; TGI [5]: 4.06 µM; GI50 [6]: 2.34 µM; TGI [6]: 10.1 µM; GI50 [7]: 4.11 µM; TGI [7]: 49.4 µM; GI50 [8]: 1.75 µM; TGI [8]: 3.18 µM; GI50 [9]: 3.95 µM; TGI [9]: 11.4 µM; GI50 [10]: 3.02 µM; TGI [10]: 12.5 µM; GI50 [11]: 1.44 µM; TGI [11]: 2.98 µM; GI50 [12]: 1.39 µM; TGI [12]: 3.11 µM; GI50 [13]: 1.48 µM; TGI [13]: 3.43 µM; GI50 [14]: 2.63 µM; TGI [14]: 7.66 µM; GI50 [15]: 1.49 µM; TGI [15]: 3.27 µM; GI50 [16]: 10.4 µM; TGI [16]: 27.2 µM; GI50 [17]: 2.81 µM; TGI [17]: 18.6 µM; GI50 [18]: 1.34 µM; TGI [18]: 3.45 µM; GI50 [19]: 3.25 µM; TGI [19]: 11.2 µM; GI50 [20]: 2.35 µM; TGI [20]: 6.38 µM; GI50 [21]: 1.34 µM; TGI [21]: 2.97 µM; GI50 [22]: 1.99 µM; TGI [22]: 4.28 µM; GI50 [23]: 2.25 µM; TGI [23]: 5.21 µM; GI50 [24]: 1.52 µM; TGI [24]: 4.19 µM; GI50 [25]: 6.79 µM; TGI [25]: 47.2 µM; GI50 [26]: 2.25 µM; TGI [26]: 6.2 µM; GI50 [27]: 7.19 µM; TGI [27]: > 100 µM; GI50 [28]: 1.93 µM; TGI [28]: 4.6 µM; GI50 [29]: 1.81 µM
